Results published in patent publication US10377753B2, “Substituted 4-azaindoles and their use as GluN2B receptor modulators” (Janssen Pharmaceutica NV, priority 2015, dated 2019).

Target: cloned human NR1/NR2B ion channels (Homo sapiens (Human), UniProt Q05586+Q13224)
Assay: HNR2BC: effects of test articles on cloned human NR1/NR2B ion channels expressed in mammalian cells (FLIPR calcium flux)
Type: cell-based
Conditions: cloned human NR1/NR2B ion channels, Table 5
How it was run: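 In a stable Tet-On-induced cell line expressing human GluN1/GluN2B, Calcium 5-loaded cells were preincubated 5 min with compound, then stimulated 5 min with glutamate at ~EC80 plus 10 μM glycine, in pH 7.4 HEPES buffer. FLIPR calcium fluorescence was normalized to control wells.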

Chain of cloned human NR1/NR2B ion channels (Q13224 27-1484, other chains not shown): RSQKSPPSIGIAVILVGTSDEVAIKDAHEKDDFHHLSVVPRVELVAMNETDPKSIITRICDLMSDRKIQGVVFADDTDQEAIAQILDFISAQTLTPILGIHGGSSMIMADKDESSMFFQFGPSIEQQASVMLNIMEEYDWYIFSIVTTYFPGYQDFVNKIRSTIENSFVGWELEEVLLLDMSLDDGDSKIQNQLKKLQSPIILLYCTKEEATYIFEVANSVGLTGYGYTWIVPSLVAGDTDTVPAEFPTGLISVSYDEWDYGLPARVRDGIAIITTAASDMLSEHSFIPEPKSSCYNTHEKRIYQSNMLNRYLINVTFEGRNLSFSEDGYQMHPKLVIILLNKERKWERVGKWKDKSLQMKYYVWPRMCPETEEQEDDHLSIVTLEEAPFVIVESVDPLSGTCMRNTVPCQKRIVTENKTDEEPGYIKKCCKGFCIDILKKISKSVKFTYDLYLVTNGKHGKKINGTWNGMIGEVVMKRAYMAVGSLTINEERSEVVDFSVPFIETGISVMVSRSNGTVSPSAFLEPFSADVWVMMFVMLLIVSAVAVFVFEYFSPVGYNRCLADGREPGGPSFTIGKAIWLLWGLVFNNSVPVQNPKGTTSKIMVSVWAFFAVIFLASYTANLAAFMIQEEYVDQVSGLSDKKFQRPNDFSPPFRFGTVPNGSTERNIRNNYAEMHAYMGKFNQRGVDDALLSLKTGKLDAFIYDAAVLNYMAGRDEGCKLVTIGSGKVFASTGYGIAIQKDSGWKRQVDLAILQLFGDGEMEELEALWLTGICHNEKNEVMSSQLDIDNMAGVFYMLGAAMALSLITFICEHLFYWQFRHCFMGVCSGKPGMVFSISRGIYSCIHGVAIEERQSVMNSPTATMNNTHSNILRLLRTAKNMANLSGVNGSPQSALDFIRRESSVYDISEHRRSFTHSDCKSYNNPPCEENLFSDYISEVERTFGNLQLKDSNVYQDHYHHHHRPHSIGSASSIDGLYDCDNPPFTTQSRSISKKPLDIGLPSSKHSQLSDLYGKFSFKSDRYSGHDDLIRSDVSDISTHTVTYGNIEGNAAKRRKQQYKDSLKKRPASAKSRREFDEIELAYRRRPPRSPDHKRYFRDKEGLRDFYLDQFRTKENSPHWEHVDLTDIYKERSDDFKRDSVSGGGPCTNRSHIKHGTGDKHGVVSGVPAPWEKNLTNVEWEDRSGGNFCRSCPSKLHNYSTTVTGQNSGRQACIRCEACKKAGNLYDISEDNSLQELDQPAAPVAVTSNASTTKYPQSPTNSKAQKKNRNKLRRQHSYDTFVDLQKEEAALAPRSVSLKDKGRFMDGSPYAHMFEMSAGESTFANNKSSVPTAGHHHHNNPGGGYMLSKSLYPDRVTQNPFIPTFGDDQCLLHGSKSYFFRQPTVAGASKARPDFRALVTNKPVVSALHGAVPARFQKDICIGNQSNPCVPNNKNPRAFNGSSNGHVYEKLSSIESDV

Row | SMILES | IC50 [nM] | pIC50
1 | CCN(C)C(=O)Cn1ccc2ncc(-c3cc(F)c(F)c(F)c3)cc21 [Example 462, N-Ethyl-N-methyl-2-[6-(3,4,5-trifluorophenyl)pyrrolo[3,2-b]pyridin-1-yl]acetamide] | 126 | –
2 | O=C(Cn1ccc2ncc(-c3cccc(Cl)c3)cc21)N1CCC1 [Example 463, 1-(Azetidin-1-yl)-2-[6-(3-chlorophenyl)pyrrolo[3,2-b]pyridin-1-yl]ethanone] | 100 | –
3 | O=C(Cn1ccc2ncc(-c3cccc(Cl)c3)cc21)N1CC(F)C1 [Example 465, 2-[6-(3-Chlorophenyl)pyrrolo[3,2-b]pyridin-1-yl]-1-(3-fluoroazetidin-1-yl)ethanone] | 79.4 | –
4 | O=C(Cn1ccc2ncc(-c3ccc(F)c(Cl)c3)cc21)N1CC(F)C1 [Example 467, 2-[6-(3-Chloro-4-fluoro-phenyl)pyrrolo[3,2-b]pyridin-1-yl]-1-(3-fluoroazetidin-1-yl)ethanone] | 63.1 | –
5 | CCN(C)C(=O)Cn1ccc2ncc(-c3cccc(C(F)(F)F)c3)cc21 [Example 470, N-Ethyl-N-methyl-2-[6-[3-(trifluoromethyl)phenyl]pyrrolo[3,2-b]pyridin-1-yl]acetamide] | 200 | –
6 | O=C(Cn1cc(F)c2ncc(-c3ccccc3F)cc21)N1CCC1 [Example 471, 1-(Azetidin-1-yl)-2-[3-fluoro-6-(2-fluorophenyl)pyrrolo[3,2-b]pyridin-1-yl]ethanone] | 100 | –
7 | Cc1cccc(-c2cnc3c(F)cn(CC(=O)N4CCC4)c3c2)c1F [Example 472, 1-(Azetidin-1-yl)-2-[3-fluoro-6-(2-fluoro-3-methyl-phenyl)pyrrolo[3,2-b]pyridin-1-yl]ethanone] | 200 | –
8 | Cc1cccc(-c2cnc3c(F)cn(CC(=O)N4CCC4)c3c2)c1 [Example 473, 1-(Azetidin-1-yl)-2-[3-fluoro-6-(m-tolyl)pyrrolo[3,2-b]pyridin-1-yl]ethanone] | 31.6 | –
9 | O=C(Cn1cc(F)c2ncc(-c3cc(F)cc(F)c3)cc21)N1CCC1 [Example 474, 1-(Azetidin-1-yl)-2-[6-(3,5-difluorophenyl)-3-fluoro-pyrrolo[3,2-b]pyridin-1-yl]ethanone] | 31.6 | –
10 | O=C(Cn1cc(F)c2ncc(-c3cccc(C(F)(F)F)c3F)cc21)N1CCC1 [Example 476, 1-(Azetidin-1-yl)-2-[3-fluoro-6-[2-fluoro-3-(trifluoromethyl)phenyl]pyrrolo[3,2-b]pyridin-1-yl]ethanone] | 50.1 | –
11 | O=C(Cn1cc(F)c2ncc(-c3ccc(F)c(F)c3F)cc21)N1CCC1 [Example 477, 1-(Azetidin-1-yl)-2-[3-fluoro-6-(2,3,4-trifluorophenyl)pyrrolo[3,2-b]pyridin-1-yl]ethanone] | 50.1 | –
12 | O=C(Cn1cc(F)c2ncc(-c3cccc(Cl)c3)cc21)N1CCC1 [Example 478, 1-(Azetidin-1-yl)-2-[6-(3-chlorophenyl)-3-fluoro-pyrrolo[3,2-b]pyridin-1-yl]ethanone] | 39.8 | –
13 | Cc1c(F)ccc(-c2cnc3c(F)cn(CC(=O)N4CCC4)c3c2)c1F [Example 480, 1-(Azetidin-1-yl)-2-[6-(2,4-difluoro-3-methyl-phenyl)-3-fluoro-pyrrolo[3,2-b]pyridin-1-yl]ethanone] | 39.8 | –
14 | Cc1cccc(-c2cnc3c(F)cn(CC(=O)N4CC(F)C4)c3c2)c1F [Example 483, 1-(3-Fluoroazetidin-1-yl)-2-[3-fluoro-6-(2-fluoro-3-methyl-phenyl)pyrrolo[3,2-b]pyridin-1-yl]ethanone] | 63.1 | –
15 | O=C(Cn1cc(F)c2ncc(-c3cccc(C(F)(F)F)c3F)cc21)N1CC(F)C1 [Example 485, 1-(3-Fluoroazetidin-1-yl)-2-[3-fluoro-6-[2-fluoro-3-(trifluoromethyl)phenyl]pyrrolo[3,2-b]pyridin-1-yl]ethanone] | 39.8 | –
16 | O=C(Cn1cc(F)c2ncc(-c3ccc(F)c(F)c3F)cc21)N1CC(F)C1 [Example 486, 1-(3-Fluoroazetidin-1-yl)-2-[3-fluoro-6-(2,3,4-trifluorophenyl)pyrrolo[3,2-b]pyridin-1-yl]ethanone] | 25.1 | –
17 | O=C(Cn1cc(F)c2ncc(-c3cc(F)cc(F)c3)cc21)N1CC(F)C1 [Example 487, 2-[6-(3,5-Difluorophenyl)-3-fluoro-pyrrolo[3,2-b]pyridin-1-yl]-1-(3-fluoroazetidin-1-yl)ethanone] | 50.1 | –
18 | O=C(Cn1cc(F)c2ncc(-c3cccc(Cl)c3)cc21)N1CC(F)C1 [Example 489, 2-[6-(3-Chlorophenyl)-3-fluoro-pyrrolo[3,2-b]pyridin-1-yl]-1-(3-fluoroazetidin-1-yl)ethanone] | – | 8.0
19 | O=C(Cn1cc(F)c2ncc(-c3cccc(F)c3)cc21)N1CC(F)C1 [Example 492, 1-(3-Fluoroazetidin-1-yl)-2-[3-fluoro-6-(3-fluorophenyl)pyrrolo[3,2-b]pyridin-1-yl]ethanone] | 25.1 | –
20 | CN(C)C(=O)Cn1cc(F)c2ncc(-c3ccccc3F)cc21 [Example 493, 2-[3-Fluoro-6-(2-fluorophenyl)pyrrolo[3,2-b]pyridin-1-yl]-N,N-dimethyl-acetamide] | 25.1 | –
21 | Cc1cccc(-c2cnc3c(F)cn(CC(=O)N(C)C)c3c2)c1F [Example 494, 2-[3-Fluoro-6-(2-fluoro-3-methyl-phenyl)pyrrolo[3,2-b]pyridin-1-yl]-N,N-dimethyl-acetamide] | 316 | –
22 | Cc1cccc(-c2cnc3c(F)cn(CC(=O)N(C)C)c3c2)c1 [Example 496, 2-[3-Fluoro-6-(m-tolyl)pyrrolo[3,2-b]pyridin-1-yl]-N,N-dimethyl-acetamide] | 79.4 | –
23 | O=C(Cn1cc(F)c2ncc(-c3ccccc3)cc21)N1CCC1 [Example 497, 1-(Azetidin-1-yl)-2-(3-fluoro-6-phenyl-pyrrolo[3,2-b]pyridin-1-yl)ethanone] | 31.6 | –
24 | CCc1cccc(-c2cnc3c(F)cn(CC(=O)N4CCC4)c3c2)c1 [Example 498, 1-(Azetidin-1-yl)-2-[6-(3-ethylphenyl)-3-fluoro-pyrrolo[3,2-b]pyridin-1-yl]ethanone] | 79.4 | –
25 | CN(C)C(=O)Cn1cc(F)c2ncc(-c3cccc(C(F)(F)F)c3)cc21 [Example 499, 2-[3-Fluoro-6-[3-(trifluoromethyl)phenyl]pyrrolo[3,2-b]pyridin-1-yl]-N,N-dimethyl-acetamide] | 25.1 | –
26 | CN(C)C(=O)Cn1cc(F)c2ncc(-c3cccc(C(F)(F)F)c3F)cc21 [Example 500, 2-[3-Fluoro-6-[2-fluoro-3-(trifluoromethyl)phenyl]pyrrolo[3,2-b]pyridin-1-yl]-N,N-dimethyl-acetamide] | 31.6 | –
27 | CN(C)C(=O)Cn1cc(F)c2ncc(-c3ccc(F)c(F)c3F)cc21 [Example 501, 2-[3-Fluoro-6-(2,3,4-trifluorophenyl)pyrrolo[3,2-b]pyridin-1-yl]-N,N-dimethyl-acetamide] | 39.8 | –

More lines, now with the values ahead:

Row | IC50 [nM] | pIC50 | SMILES
28 | 12.6 | – | CCN(C)C(=O)Cn1ccc2ncc(-c3cccc(C(F)(F)F)c3F)cc21 [Example 464, N-Ethyl-2-[6-[2-fluoro-3-(trifluoromethyl)phenyl]pyrrolo[3,2-b]pyridin-1-yl]-N-methyl-acetamide]
29 | 20 | – | O=C(Cn1ccc2ncc(-c3cccc(Cl)c3F)cc21)N1CC(F)C1 [Example 466, 2-[6-(3-Chloro-2-fluoro-phenyl)pyrrolo[3,2-b]pyridin-1-yl]-1-(3-fluoroazetidin-1-yl)ethanone]
30 | 15.8 | – | CCN(C)C(=O)Cn1ccc2ncc(-c3ccc(F)c(C)c3F)cc21 [Example 469, 2-[6-(2,4-Difluoro-3-methyl-phenyl)pyrrolo[3,2-b]pyridin-1-yl]-N-ethyl-N-methyl-acetamide]
31 | 25.1 | – | O=C(Cn1cc(F)c2ncc(-c3cccc(C(F)(F)F)c3)cc21)N1CCC1 [Example 475, 1-(Azetidin-1-yl)-2-[3-fluoro-6-[3-(trifluoromethyl)phenyl]pyrrolo[3,2-b]pyridin-1-yl]ethanone]
32 | 25.1 | – | O=C(Cn1cc(F)c2ncc(-c3cccc(Cl)c3F)cc21)N1CCC1 [Example 479, 1-(Azetidin-1-yl)-2-[6-(3-chloro-2-fluoro-phenyl)-3-fluoro-pyrrolo[3,2-b]pyridin-1-yl]ethanone]
33 | 25.1 | – | O=C(Cn1cc(F)c2ncc(-c3ccc(F)c(Cl)c3)cc21)N1CCC1 [Example 481, 1-(Azetidin-1-yl)-2-[6-(3-chloro-4-fluoro-phenyl)-3-fluoro-pyrrolo[3,2-b]pyridin-1-yl]ethanone]
34 | 15.8 | – | O=C(Cn1cc(F)c2ncc(-c3ccccc3)cc21)N1CC(F)C1 [Example 482, 1-(3-Fluoroazetidin-1-yl)-2-(3-fluoro-6-phenyl-pyrrolo[3,2-b]pyridin-1-yl)ethanone]
35 | 12.6 | – | O=C(Cn1cc(F)c2ncc(-c3cccc(C(F)(F)F)c3)cc21)N1CC(F)C1 [Example 484, 1-(3-Fluoroazetidin-1-yl)-2-[3-fluoro-6-[3-(trifluoromethyl)phenyl]pyrrolo[3,2-b]pyridin-1-yl]ethanone]
36 | 15.8 | – | Cc1c(F)ccc(-c2cnc3c(F)cn(CC(=O)N4CC(F)C4)c3c2)c1F [Example 488, 2-[6-(2,4-Difluoro-3-methyl-phenyl)-3-fluoro-pyrrolo[3,2-b]pyridin-1-yl]-1-(3-fluoroazetidin-1-yl)ethanone]
37 | 20 | – | O=C(Cn1cc(F)c2ncc(-c3cccc(Cl)c3F)cc21)N1CC(F)C1 [Example 490, 2-[6-(3-Chloro-2-fluoro-phenyl)-3-fluoro-pyrrolo[3,2-b]pyridin-1-yl]-1-(3-fluoroazetidin-1-yl)ethanone]
38 | 15.8 | – | CCc1cccc(-c2cnc3c(F)cn(CC(=O)N4CC(F)C4)c3c2)c1 [Example 491, 2-[6-(3-Ethylphenyl)-3-fluoro-pyrrolo[3,2-b]pyridin-1-yl]-1-(3-fluoroazetidin-1-yl)ethanone]
39 | 12.6 | – | CN(C)C(=O)Cn1cc(F)c2ncc(-c3ccccc3)cc21 [Example 495, 2-(3-Fluoro-6-phenyl-pyrrolo[3,2-b]pyridin-1-yl)-N,N-dimethyl-acetamide]
